Experiments:
[1] = system: M. smegmatis mc^2155 (ATCC 700084); test: Broth microdilution determination of minimum inhibitory concentrations; format: cell-based, Mycobacterium smegmatis
in vitro [2] = conditions: mouse, plasma, pH 7.4
M. smegmatis biofilms [3] = test: Biofilm inhibition assay; format: cell-based, Mycobacterium smegmatis
M. smegmatis biofilms [4] = test: Synergy dispersion assay of compound with INH/RIF on pre-formed biofilms; format: cell-based, Mycobacterium smegmatis; conditions: INH 256 + RIF 128 µg mL^−1
[5] = Microsome stability assay; conditions: male, CD-1, mouse, microsomes, pH 7.4
in vitro [6] = conditions: male, CD-1, mouse, microsomes, pH 7.4
[7] = Table 3, trifluoromethyl 2-AIs, no unit printed for these values

| SMILES | MIC [1, 7] | half-life at 100 µM (in vitro [2]) | fold reduction in EC50 with antibiotics versus compound alone (M. smegmatis biofilms [4]) | half-life at 100 µM [5] | other results |
| --- | --- | --- | --- | --- | --- |
| CCCOc1ccc(-c2nc(N)[nH]c2C(F)(F)F)cc1 [Compound 12h, 4-(4-Propoxyphenyl)-5-(trifluoromethyl)-1H-imidazol-2-amine] | 200 | – | – | – | – |
| CC(C)NCC(O)COc1cccc2ccccc12 (centres unmarked) [Propanolol, reference compound] | – | 0.343 h | – | – | – |
| CCCCCCc1ccc(-c2nc(N)[nH]c2C(F)(F)F)cc1 [Compound 12g, 4-(4-Hexylphenyl)-5-(trifluoromethyl)-1H-imidazol-2-amine] | – | 4.43 h | three-fold reduction | 0.978 h | MIC ([1]; Table 2, 4,5 substituted 2-AIs, unit printed in text b20 only): >200 µM; IC50 (M. smegmatis biofilms [3]; Table 2, highest concentration tested 50 µM): 6.8 ± 0.9 µM |
| CCCCCOc1ccc(-c2nc(N)[nH]c2C(F)(F)F)cc1 [Compound 12j, 4-(4-(Pentyloxy)phenyl)-5-(trifluoromethyl)-1H-imidazol-2-amine] | 200 | 4.8 h | four-fold reduction | 1.02 h | IC50 (M. smegmatis biofilms [3]; Table 3): 7.4 ± 0.6 µM |
| CCCCOc1ccc(-c2nc(N)[nH]c2C(F)(F)F)cc1 [Compound 12i, 4-(4-Butoxyphenyl)-5-(trifluoromethyl)-1H-imidazol-2-amine] | 200 | – | – | – | – |
| CCOc1ccc(NC(C)=O)cc1 [Phenacetin] | – | – | – | – | half-life at 100 µM (in vitro [6]): 0.59 h |

Reference: paper PMC6682311 (ChemMedChem, 2019)
